Test [1] has as its system GBM4 human glioblastoma cells. Nature of the test: GBM4 viability assay (Cell Titer Glo). Type of test: cell-based. How it is done:
Cell culture medium was prepared from a NSA proliferation kit (Neurocult) and NeuroCult supplements (Stemcell Tech Cat. #05751) and treated with 20 μL of 10 μg/mL rh EGF, 10 μL of 10 μg/mL rh bFGF and 10 μL of 0.2% Heparin. In this medium, human glioblastoma cells were cultured in ultra-low attachment tissue culture flasks until 1×10^6 cells ml was achieved (GBM4 and GBM8 are distinct neurosphere cell cultures derived from these human patient tissues). GBM4 and GBM8 cells were dissociated and 10 mL of media containing 4000 human glioblastoma cells per 90 μL were transferred to an ultra-low binding 96-well plate and incubated at 37° C. overnight. On the following day, 10 μL of a 1% DMSO solution of test compound in assay medium was added to wells containing the cell suspension and the mixture incubated at 37° C. for 3 days. At this time, the plate was removed from the incubator and allowed to reach room temperature. After about 30 minutes, 50 μL of Cell Titer Glo solution was added to each well and the plate shaken for 1 minute at low speed. After 10 minutes luminescence was recorded using a Tecan Safire2 reader.
Reduction in luminescence compared to DMSO only control wells was used to determine the percentage inhibition of cell growth. IC50s were calculated using the % inhibition of luminescence for serial dilutions of compounds fitted to a 4-parameter fit within the Prism (San Diego) curve fitting program. Tables 1 (compounds 3-188) and 2 (compounds 190-212) show the GBM4 IC50 and GBM8 IC50 for compounds described herein.
Background: ATP-based viability assays read luminescence as a measure of living cells.

Test [2] relates to GBM8 human glioblastoma cells. Nature of the test: GBM8 viability assay (Cell Titer Glo). The class given is cell-based. Particulars: 72 h, luminescence. The procedure, abridged: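 Patient-derived GBM4 and GBM8 neurosphere cells, 4000 per well in EGF/bFGF/heparin-supplemented NeuroCult medium, were exposed to compound (added in 1% DMSO solution) for 3 days at 37° C. Growth was read by CellTiter-Glo luminescence versus DMSO wells, and IC50s came from 4-parameter fits of serial dilutions.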

Where [3] appears, read: 72 h, Table 1, 3 days incubation, luminescence, read-out: GBM4 IC50.
Setting [4] is: Table 3, GBM4 cells, read-out: GBM4 IC50 (Cytotoxicity).

Where two headings read alike, the source gives them in different places. Where only a bound is given, the exact number is not on record here.

`Cc1cc(NCCCN)nc(NC(=O)Nc2ccc3ccccc3c2)n1` [Compound 4, 1-(4-((3-aminopropyl)amino)-6-methylpyrimidin-2-yl)-3-(naphthalen-2-yl)urea]: the IC50 in test [1] (setting [3]) is less than 0.5 µM; in test [2] (Table 1, 3 days incubation) it was less than 0.5 µM.

Take `Cc1cc(NCCCN(C)C)nc(NC(=O)Nc2ccc3ccccc3c2)n1` [Compound 3, 1-(4-((3-(dimethylamino)propyl)amino)-6-methylpyrimidin-2-yl)-3-(naphthalen-2-yl)urea]: the IC50 in test [1] (setting [3]) was less than 0.5 µM; in test [2] (Table 1, 3 days incubation), less than 0.5 µM.

In the case of `Cc1cc(NCCNS(C)(=O)=O)nc(NC(=O)Nc2ccc3ccccc3c2)n1` [Compound 36, N-(2-((6-methyl-2-(3-(naphthalen-2-yl)ureido)pyrimidin-4-yl)amino)ethyl)methanesulfonamide], the concentration for half-maximal inhibition (IC50) in test [1] (setting [4]) is 0.04 µM; in test [2] (Table 1, 3 days incubation), less than 0.5 µM.

As for `CC(=O)NCCNc1cc(C)nc(NC(=O)Nc2ccc3ccccc3c2)n1` [Compound 35, N-(2-((6-methyl-2-(3-(naphthalen-2-yl)ureido)pyrimidin-4-yl)amino)ethyl)acetamide], the IC50 in test [1] (setting [4]) is 0.14 µM; in test [2] (Table 1, 3 days incubation), less than 0.5 µM.

`CC(=O)NCCNc1cc(C)nc(NC(=O)Nc2ccc3cnccc3c2)n1` [Compound 67, N-(2-((2-(3-(isoquinolin-6-yl)ureido)-6-methylpyrimidin-4-yl)amino)ethyl)acetamide] showed a half-inhibitory concentration (IC50) in test [2] (Table 1, 3 days incubation) of less than 0.5 µM.

Consider `CCCNc1cc(C)nc(NC(=O)Nc2ccc3ccccc3c2)n1` [Compound 12], for which, in test [2] (Table 1, 3 days incubation), the IC50 was less than 0.5 µM.

On to `CC(C)c1cc(NCCCN(C)C)nc(NC(=O)Nc2ccc3ccccc3c2)n1` [Compound 188, 1-(4-((3-(dimethylamino)propyl)amino)-6-isopropylpyrimidin-2-yl)-3-(naphthalen-2-yl)urea], for which the IC50 in test [2] (Table 1, 3 days incubation) lay in the range of 0.5 to 5 µM.

As to `Cc1cc(NCC2CCCNC2)nc(NC(=O)Nc2ccc3ccccc3c2)n1` (centres unmarked) [Compound 32, 1-(4-methyl-6-((piperidin-3-ylmethyl)amino)pyrimidin-2-yl)-3-(naphthalen-2-yl)urea], the IC50 in test [2] (Table 1, 3 days incubation) is less than 0.5 µM.

Take `Cc1cc(NCCCN(C)C)nc(NC(=O)Nc2ccc(-c3ccccc3)cc2)n1` [Compound 125, 1-([1,1′-biphenyl]-4-yl)-3-(4-((3-(dimethylamino)propyl)amino)-6-methylpyrimidin-2-yl)urea]: the half-maximal inhibitory concentration (IC50) in test [2] (Table 1, 3 days incubation) was less than 0.5 µM.

The compound `Cc1cc(NCCCCN(C)C)nc(NC(=O)Nc2ccc3ccccc3c2)n1` [Compound 17] registered an IC50 in test [2] (Table 1, 3 days incubation) of less than 0.5 µM.

As for `Cc1cc(NCCNS(C)(=O)=O)nc(NC(=O)Nc2ccc3ncccc3c2)n1` [Compound 111, N-(2-((6-methyl-2-(3-(quinolin-6-yl)ureido)pyrimidin-4-yl)amino)ethyl)methanesulfonamide], the IC50 in test [2] (Table 1, 3 days incubation) was less than 0.5 µM.

As for `CC(=O)NCCCNc1cc(C)nc(NC(=O)Nc2ccc3cnccc3c2)n1` [Compound 66, N-(3-((2-(3-(isoquinolin-6-yl)ureido)-6-methylpyrimidin-4-yl)amino)propyl)acetamide], the IC50 in test [2] (Table 1, 3 days incubation) is less than 0.5 µM.

Consider `CNCCNc1cc(C)nc(NC(=O)Nc2ccc3ccccc3c2)n1` [Compound 30, 1-(4-methyl-6-((2-(methylamino)ethyl)amino)pyrimidin-2-yl)-3-(naphthalen-2-yl)urea], for which the IC50 in test [2] (Table 1, 3 days incubation) is less than 0.5 µM.

The compound `CNC(=O)CNc1cc(C)nc(NC(=O)Nc2ccc3cnccc3c2)n1` [Compound 58] had an IC50 in test [2] (Table 1, 3 days incubation) of less than 0.5 µM.

In test [2] (Table 2, 3 days incubation), `O=C(Nc1ccc(Cl)c(Cl)c1)Nc1nc(NO)cc(C2CC2)n1` [Compound 207, 1-(4-cyclopropyl-6-(hydroxyamino)pyrimidin-2-yl)-3-(3,4-dichlorophenyl)urea] had an IC50 of 0.5 to 5 µM.

Compound `Cc1cc(NCCC(N)=O)nc(NC(=O)Nc2ccc3ccccc3c2)n1` [Compound 26, 3-((6-methyl-2-(3-(naphthalen-2-yl)ureido)pyrimidin-4-yl)amino)propanamide] showed an IC50 in test [2] (Table 1, 3 days incubation) of less than 0.5 µM.

In test [2] (Table 1, 3 days incubation), `Cc1cc(NCCCN(C)C)nc(NC(=O)Nc2cccc(Oc3ccccc3)c2)n1` [Compound 128, 1-(4-((3-(dimethylamino)propyl)amino)-6-methylpyrimidin-2-yl)-3-(3-phenoxyphenyl)urea] gave an IC50 of 0.5 to 5 µM.

`O=C(Nc1ccc2ccccc2c1)Nc1nccc(NO)n1` [Compound 161, 1-(4-(hydroxyamino)pyrimidin-2-yl)-3-(naphthalen-2-yl)urea] showed an IC50 in test [2] (Table 1, 3 days incubation) of 0.5 to 5 µM.

In the case of `CNCCCNc1cc(C2CC2)nc(NC(=O)Nc2ccc(OC(F)(F)F)cc2)n1` [Compound 211, 1-(4-cyclopropyl-6-((3-(methylamino)propyl)amino)pyrimidin-2-yl)-3-(4-(trifluoromethoxy)phenyl)urea], in test [2] (Table 2, 3 days incubation), the IC50 lay within 0.5 to 5 µM.

As to `Cc1cc(NCCc2ccc[nH]2)nc(NC(=O)Nc2ccc3ccccc3c2)n1` [Compound 24, 1-(4-((2-(1H-pyrrol-2-yl)ethyl)amino)-6-methylpyrimidin-2-yl)-3-(naphthalen-2-yl)urea], in test [2] (Table 1, 3 days incubation), the IC50 was less than 0.5 µM.

Consider `CC(=O)NCCNc1cc(C)nc(NC(=O)Nc2ccc3ccncc3c2)n1` [Compound 119, N-(2-((2-(3-(isoquinolin-7-yl)ureido)-6-methylpyrimidin-4-yl)amino)ethyl)acetamide], for which, in test [2] (Table 1, 3 days incubation), the IC50 lay within 0.5 to 5 µM.

`CNc1cc(C)nc(NC(=O)Nc2ccc3cnccc3c2)n1` [Compound 55] gave an IC50 in test [2] (Table 1, 3 days incubation) of less than 0.5 µM.

For `CNCCCNc1cc(C(C)C)nc(NC(=O)Nc2ccc(OC(F)(F)F)cc2)n1` [Compound 198, 1-(4-isopropyl-6-((3-(methylamino)propyl)amino)pyrimidin-2-yl)-3-(4-(trifluoromethoxy)phenyl)urea], the IC50 in test [2] (Table 2, 3 days incubation) lay in the range of 0.5 to 5 µM.

The compound `CNCCCN(C)c1cc(C)nc(NC(=O)Nc2ccc3ccccc3c2)n1` [Compound 9] yielded an IC50 in test [2] (Table 1, 3 days incubation) of 0.5 to 5 µM.

As for `CCNc1cc(C)nc(NC(=O)Nc2ccc3ccccc3c2)n1` [Compound 19], the IC50 in test [1] (setting [4]) was 0.06 µM; in test [2] (Table 1, 3 days incubation), less than 0.5 µM.

For the compound `Cc1cc(NCCN)nc(NC(=O)Nc2ccc3ccccc3c2)n1` [Compound 5, 1-(4-((2-aminoethyl)amino)-6-methylpyrimidin-2-yl)-3-(naphthalen-2-yl)urea], the IC50 in test [2] (Table 1, 3 days incubation) was less than 0.5 µM.

`CC(=O)NCCNc1cc(C)nc(NC(=O)Nc2ccc3ccccc3n2)n1` [Compound 101, N-(2-((6-methyl-2-(3-(quinolin-2-yl)ureido)pyrimidin-4-yl)amino)ethyl)acetamide] displayed an IC50 in test [2] (Table 1, 3 days incubation) of 0.5 to 5 µM.

Usually IC50 stands for the midpoint of a concentration-inhibition curve.

The values are drawn from patent publication US12145913B2, “Inhibition of Olig2 activity” (Curtana Pharmaceuticals, Inc., priority 2016, dated 2024).
